ChEMBL document CHEMBL6178021, “Optimization of Tambjamines Active against Multiple Stages of Malaria Parasites” (J Med Chem, 2025)
pIC50: −log10 of the molar value. Values after ≈ are worked out from the molar mass of the structure shown.

How the values were obtained:
[1] = test system: Plasmodium falciparum; assay: Antiplasmodial activity against asexual blood-stage Plasmodium falciparum Tm90-C2B using 2% haematocrit and 0.2% parasitemia assessed as reduction in fluorescence measured after 72 hrs by Malaria SYBR Green I-based Fluorescence (MSF) assay; type: functional, organism-based
[2] = test system: HepG2; assay: Cytotoxicity against human HepG2 cells assessed as cell viability measured after 48 hrs by MTT assay; type: toxicity, cell-based; settings: hepg2
[3] = Metabolic stability in human liver microsomes assessed as half life measured up to 60 mins by LC/MS analysis; type: ADME, Microsome
[4] = Metabolic stability in mouse liver microsomes assessed as half life measured up to 60 mins by LC/MS analysis; type: ADME, Microsome
[5] = test system: Plasmodium yoelii; assay: Antimalarial activity against erythrocytic Plasmodium yoelii MRA-428 infected in CF1 mouse assessed as reduction in parasitemia at 10 mg/kg, po once daily for 4 days measured on day 5; type: functional; design: scale not given: the % may be the effect or the level left; settings: time 4 day
[6] = test system: Plasmodium yoelii; assay: Antimalarial activity against erythrocytic Plasmodium yoelii MRA-428 infected in CF1 mouse assessed as reduction in parasitemia at 25 mg/kg, po once daily for 4 days measured on day 5; type: functional; design: scale not given: the % may be the effect or the level left; settings: time 4 day
[7] = Solubility of the compound in potassium phosphate buffer at pH 7.4 by UV-vis spectroscopy; settings: buffer
[8] = test system: MDR1 (human); assay: Apparent permeability across apical to basolateral side in MDCK transfected with human MDR1 cells incubated for 1 hr by LC-MS analysis; settings: dog, MDCK-MDR1
[9] = test system: MDR1 (human); assay: Apparent permeability across basolateral to apical side in MDCK transfected with human MDR1 cells incubated for 1 hr by LC-MS analysis; settings: dog, MDCK-MDR1
[10] = in vitro; settings: human, liver microsomes
[11] = in vitro; settings: mouse, liver microsomes
[12] = test system: Plasmodium falciparum; assay: microbe, parasite or virus in culture; settings: D6, 72 h
Description: Antiplasmodial activity against asexual blood-stage Plasmodium falciparum D6 using 2% haematocrit and 0.2% parasitemia assessed as reduction in fluorescence measured after 72 hrs by Malaria SYBR Green I-based Fluorescence (MSF) assay

[13] = test system: Plasmodium falciparum; assay: microbe, parasite or virus in culture; settings: Dd2, 72 h
Description: Antiplasmodial activity against asexual blood-stage Plasmodium falciparum Dd2 using 2% haematocrit and 0.2% parasitemia assessed as reduction in fluorescence measured after 72 hrs by Malaria SYBR Green I-based Fluorescence (MSF) assay

[14] = test system: Plasmodium yoelii; assay: Antimalarial activity against erythrocytic Plasmodium yoelii MRA-428 infected in CF1 mouse assessed as reduction in parasitemia at 50 mg/kg, po once daily for 4 days measured on day 5; type: functional; design: scale not given: the % may be the effect or the level left; settings: time 4 day
[15] = test system: Plasmodium yoelii; assay: Antimalarial activity against erythrocytic Plasmodium yoelii MRA-428 infected in CF1 mouse assessed as cured mouse at 25 mg/kg, po once daily for 4 days measured on day 28 day; type: functional, organism-based; settings: time 4.0 day
[16] = test system: Plasmodium yoelii; assay: Antimalarial activity against erythrocytic Plasmodium yoelii MRA-428 infected in CF1 mouse assessed as cured mouse at 50 mg/kg, po once daily for 4 days measured on day 28 day; type: functional, organism-based; settings: time 4.0 day

SMILES	pIC50 [1]	pIC50 [2]	half-life [3] [min]	half-life [4] [min]	Activity [5] [%]	Activity [6] [%]	solubility [7] [µM]	Papp A→B at 1 h [8] [×10⁻⁶ cm/s]	Papp B→A at 1 h [9] [×10⁻⁶ cm/s]	microsomal CLint at 1 h [10] [µL/min/mg]	microsomal CLint at 1 h [11] [µL/min/mg]	pIC50 [12]	pIC50 [13]	Activity [14] [%]	Activity [15]	Activity [16]
CCC1=C(CC)/C(=C/NC2CCCCCCC2)N=C1c1ccc(Br)[nH]1	7.12	5.02	> 60	> 60	20.4	42.3	6.28 (≈ 2.54 µg/mL)	0.006	0.066	9.19	10.4	7.27	6.91			
CCc1ccc(C2=N/C(=C\NC3CCCCC3)C(OC)=C2OC)[nH]1	8.40	4.94	> 60	26.2	12.3	12.1	99.6 (≈ 32.8 µg/mL)	0.21	0.49	16.8	52.8	7.99	7.81			
CCc1ccc(C2=N/C(=C\NC3CCCCCCC3)C(C)=C2C)[nH]1	8.37	5.70	> 60	> 60		97	57.7 (≈ 18.8 µg/mL)	0.022				8.30	8.40	100		
COc1ccc(Cc2ccc(C3=N/C(=C\NC4CCCCC4)C4=C3CCCC4)[nH]2)cc1	8.23	5.70	> 60	> 60	0	0	25.5 (≈ 10.6 µg/mL)			11.2	9.87	8.01	7.91			
COC1=C(OC)/C(=C/NC2CCCCC2)N=C1c1ccc[nH]1	7.08	4.38	14.6	18.7	0	70.8	478 (≈ 144 µg/mL)	4.3	4.8	94.9	74.1	7.18	7.13			
CCc1ccc(C2=N/C(=C\NC3CCCCCC3)C(OC)=C2OC)[nH]1	8.85	4.96	> 60	36.6	13.5	59.6	56.1 (≈ 19.3 µg/mL)	0.059	0.16	12.6	37.9	8.43	8.30			
CCN(CC)CCCC(C)Nc1ccnc2cc(Cl)ccc12 (centres undefined)															Not active; None Of The Mouse Cured Out Of Four Tested	Not active; None Of The Mouse Cured Out Of Four Tested
CCC1=C(CC)/C(=C/NC2CCCCC2)N=C1c1ccc(-c2ccc(OC)cc2)[nH]1	7.74	5.18	> 60	> 60	18.5		< 3.125	0.01	0.003	4.54	21.8	7.47	7.39			
C(/NC1CCCCCC1)=C1/N=C(c2ccc[nH]2)C2=C1OCCO2	7.90	5.11	14.9	19.5	0	31.2	183 (≈ 57.4 µg/mL)	1.7	2.9	92.8	79.8		7.59			
CCc1ccc(C2=N/C(=C\NC3CCCCCC3)C3=C2OCCO3)[nH]1	8.48	5.75	> 60	28.7	34.2	67.4	52.1 (≈ 17.8 µg/mL)	0.042	0.47	20.6	48.2	8.12	7.78			
C(/NC1CCCCC1)=C1/N=C(c2ccc[nH]2)C2=C1OCCO2	7.36	5.04	13.1	16.1	7.6	26.7	231 (≈ 69.2 µg/mL)	0.33	4.4	105	86.4	7.31	7.27			
COc1ccc(Cc2ccc(C3=N/C(=C\NC4CCCCC4)C4=C3OCCO4)[nH]2)cc1	8.02	5.81	> 60	> 60	5.01	31.2	16.4 (≈ 6.88 µg/mL)	0.002	0.051	18.1	16.2	8.22	7.90			
CCC1=C(CC)/C(=C/NC2CCCCC2)N=C1c1ccc(-c2ccccc2)[nH]1	7.86	5.33	> 60	> 60	0		< 3.125	0.012	0.003	15.9	17.6	7.61	7.56			
CCC1=C(CC)/C(=C/NC2CCCCCC2)N=C1c1ccc(-c2ccc(OC)cc2)[nH]1	7.78	5.47	8.44	14.5	4.62		45.7 (≈ 19.1 µg/mL)	0.045	0.013	164	96.1	7.71	7.60			
CCC1=C(CC)/C(=C/NC2CCCCCCC2)N=C1c1ccc(-c2ccccc2)[nH]1	7.18	5.05	32.9	52.2	37.4		4.62 (≈ 1.86 µg/mL)	0.004	0.002	42.1	26.5	7.41	7.32			
